Results published in patent publication US4219668A, “4-Hydroxy,4-biphenylbutyric acid” (American Cyanamid Company, priority 1979, dated 1980).

Assays:
[1] = British Pat. No. 1,390,091; cited from earlier work
[2] = test system: aggregation of thromocytes; conditions: British Pat. No. 1,390,091; cited from earlier work
[3] = test system: platelet aggregation (collagen-induced, platelet rich plasma); experiment: Inhibition of collagen-induced platelet aggregation ex vivo after oral administration to male rats; format: in vivo; conditions: rats bled after one to 2 hours, collagen 500 mcg./ml.
Protocol: The compounds were administered orally to male rats in various concentrations. After one to 2 hours the rats were bled and platelet rich plasma obtained. Collagen was added at a concentration of 500 mcg./ml. to induce platelet aggregation and comparisons were made between control and treated samples. The percent inhibition of aggregation produced by the test compound was recorded.

[4] = test system: respiratory depression associated with platelet aggregation and thrombosis induced by arachidonic acid; experiment: Inhibition of arachidonic acid-induced respiratory depression in mice; format: in vivo; conditions: arachidonic acid 50 mg./kg. i.v. two hours later
Protocol: In a second test the in vivo activity is determined in mice. […] Mice were treated orally by gastric lavage with the test compounds in a starch suspension at various dosage levels. Two hours later a challenge dose of arachidonic acid was given to the mice intravenously at a concentration of 50 mg./kg. The period of respiratory distress for each animal was recorded in seconds by observation. The results of a typical compound of this invention appear in Table II in terms of percent inhibition in comparison with controls.

[5] = test system: carrageenin-induced edema; experiment: Acute anti-inflammatory activity, carrageenin-induced paw edema; format: in vivo, Royal Hart, Wistar strain rats; conditions: 250 mg./kg. by gavage; 5 hours after drug, 4 hours after carrageenin; edema of control animals/edema of treated animals; >1.41 considered active
Protocol: In determining the acute anti-inflammatory activity, Royal Hart, Wistar strain rats ranging in weight from 80 to 90 grams were used. The rats were fasted overnight prior to dosing but had free access to water. The compounds were administered in aqueous suspension, by gavage, in a column of 1.7 ml. per 50 g. of rat [corresponds to the hydration volume used by Winter, et al., Proc. Soc. Exp. Biol. and Med. 111, 544-547 (1962)].
The phlogistic agent used was carrageenin prepared as a sterile 1% suspension in 0.9% aqueous sodium chloride for routine testing. A volume of 0.05 ml. was injected through a 26 gauge needle into the plantar tissue of the right hind paw. Measurements were made 5 hours after drug administration (4 hours after carrageenin challenge).
Volumes of both the normal and carrageenin inflamed feet were determined. The difference between the two measurements is considered to be the increased edema due to the carrageenin administration. Results are expressed as a C/T efficacy ratio (edema of control animals/edema of treated animals) and a C/T ratio of greater than 1.41 is considered active.

[6] = test system: adjuvant induced arthritis (Freund's adjuvant); experiment: Chronic inflammation, adjuvant induced arthritis; format: in vivo, Royal Hart, Wistar strain rats; conditions: 50 mg./kg. oral once daily, days 0 through 13
Protocol: In a second test the activity against chronic inflammation in adjuvant induced arthritis was determined. Groups of 3 Royal Hart, Wistar strain rats, weighing 200±10 g. each were injected intradermally in the right hind paw with Freund's adjuvant (dried human tubercle bacilli in a mineral oil vehicle) at a dose of 2 mg./kg. of body weight. Test compounds were administered orally in a 1.5% starch vehicle at 50 mg./kg. of body weight once daily on days 0 through 13 post challenge. Control rats were treated in a similar manner, but given only starch vehicle. On the 14th day post challenge the diameter of the injected paw (primary lesion) was measured by micrometer caliper. The volume of inflamed paws was estimated from these measurements and the results are expressed as percent inhibition of swelling as compared to controls. At the same time, the other inflamed sites, such as ears, paws and tail (secondary lesions) were observed and each rat was graded as to the degree of inflammation and swelling present. The grading is based on a scale of 0 to 24, where 0 represents a complete absence of induced arthritic nodules and 24 represents the maximum degree of inflammation. The mean grade for each treated group is calculated and the effects of each compound are expressed as percent inhibition of the control grade. Table IV records the results of this test on a typical compound of this invention.

[7] = test system: ultraviolet induced erythema; experiment: Ultraviolet induced erythema in guinea pigs; format: in vivo, Albino guinea pigs; conditions: maximum score 3.0
Protocol: Another method of determining a drug effect on conditions which result in inflammation is by measuring the effect on ultraviolet induced erythema in guinea pigs. Albino guinea pigs were depilitated on their flanks, the evening before testing, with a standard mixture of barium sulfide and gum acacia. On the morning of the test, groups of 4 guinea pigs were dosed by gavage one hour prior (-1 hour) to ultraviolet exposure. At 0 hour they were restrained in a plastic container which allows exposure of 3 circular spots. They were then exposed to ultraviolet irradiation from a "Hanovia" Kromayer lamp, model 10, for 60 seconds. At one and four hours, the degree of erythema for each of the three sites was assessed according to the following scoring system: 0=no erythema, 0.5=incomplete circle or faint erythema and 1.0=[…] circle of distinct erythema. Thus, the maximum score for each animal was 3.0.

[8] = 62.5 mg./kg. by gavage 1 hour prior to UV, 4 animals
[9] = 125 mg./kg. by gavage 1 hour prior to UV, 4 animals
[10] = 250 mg./kg. by gavage 1 hour prior to UV, 8 animals

SMILES | activity as indicated (antiphlogistic) [1] | activity as indicated (aggregation of thromocytes) [2] | % Inhibition (platelet aggregation) ([3]; 10 mg./kg. oral) [%] | % Inhibition (platelet aggregation) ([3]; 25 mg./kg. oral) [%] | % Inhibition (platelet aggregation) ([3]; 50 mg./kg. oral) [%] | % Inhibition (period of respiratory distress) ([4]; 1 mg./kg. oral) [%] | % Inhibition (period of respiratory distress) ([4]; 10 mg./kg. oral) [%] | % Inhibition (period of respiratory distress) ([4]; 25 mg./kg. oral) [%] | % Inhibition (period of respiratory distress) ([4]; 50 mg./kg. oral) [%] | C/T Edema Ratio [5] | % Inhibition of Swelling (primary lesion) ([6]; 14th day post challenge, injected paw) [%] | % Inhibition of Control grade (secondary lesion) ([6]; 14th day, grade scale 0 to 24) [%] | Score (avg.) 1 hour [7, 8] | Score (avg.) 4 hour [7, 8] | Score (avg.) 1 hour [7, 9] | Score (avg.) 4 hour [7, 9] | Score (avg.) 1 hour [7, 10] | Score (avg.) 4 hour [7, 10]
O=C1CCC(c2ccc(-c3ccccc3)cc2)O1 (stereo not drawn) [5-(4-biphenylyl)-2-hydro-2-(3H)-furanone] | antiphlogistic | inhibitory |  |  |  |  |  |  |  |  |  |  |  |  |  |  |  | 
O=C(O)CCC(O)c1ccc(-c2ccccc2)cc1 (stereo not drawn) [γ-Hydroxy-4-biphenylbutyric acid] |  |  | 25 | 25 | 19 | 46 | 51 | 66 | 63 | 2.0 | 51 | 30 | 0 | 2.1 | 0.4 | 2.9 | 0 | 2.0
